For 13 compounds, IC50 results are on record in ChEMBL document CHEMBL1131787, “Effects of ortho-substituent groups of sulochrin on inhibitory activity to eosinophil degranulation” (Bioorg Med Chem Lett, 1999).

pIC50: −log10 of the molar value.

The nature of the assay: Inhibitory activity against eosinophil degranulation. Type of assay: functional.

The term pIC50 denotes −log10 of the IC50, conventionally taken in molar units.

Compound `COc1cc(O)ccc1C(=O)c1c(O)cc(C)cc1O` showed a negative-log IC50 (pIC50) of less than 5.00.
Under `CCCCOC(=O)c1cc(O)cc(OC)c1C(=O)c1c(O)cc(C)cc1O` stands 7.40; under `COC(=O)c1cc(O)cc(O)c1C(=O)c1c(O)cc(C)cc1OC`, 6.40.
Under `CCCOC(=O)c1cc(O)cc(OC)c1C(=O)c1c(O)cc(C)cc1O` stands 7.00.
Under `COC(=O)c1cc(O)cc(O)c1C(=O)c1c(OC)cc(C)cc1OC` stands less than 5.00; under `CCOC(=O)c1cc(O)cc(OC)c1C(=O)c1c(O)cc(C)cc1O`, 7.00.
`CCCCCCOC(=O)c1cc(O)cc(OC)c1C(=O)c1c(O)cc(C)cc1O` had a pIC50 of 6.52.
For `COC(=O)c1cc(O)cc(OC)c1C(=O)c1c(OCCO)cc(C)cc1OCCO`, the negative logarithm of the IC50 (pIC50) was less than 5.00.
Under `CCC(C)OC(=O)c1cc(O)cc(OC)c1C(=O)c1c(O)cc(C)cc1O` (stereo not drawn) stands 7.52.
As for `COC(=O)c1cc(O)cc(O)c1C(=O)c1c(O)cc(C)cc1O`, the pIC50 was less than 5.00.
In the case of `COC(=O)c1cc(O)cc(OC)c1C(=O)c1c(O)cc(C)cc1OC` it was 6.52.
Under `COc1cc(O)cc(C(=O)O)c1C(=O)c1c(O)cc(C)cc1O` stands less than 5.00; under `COC(=O)c1cc(O)cc(OC)c1C(=O)c1c(O)cc(C)cc1O` [SULOCHRIN], 7.00.
